# In PubChem BioAssay (NCI):
#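 Exposure lasted 48 hours, with cells grown in 96-well plates and compounds tested at five concentrations. At the GI50, growth is halved. Definition used: TGI = concentration required for complete inhibition of growth.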
# Legend:
# Assay in all cases: NCI anticancer screen, dose series, 48 h
# [1] = system: DMS 114 small cell lung
# [2] = system: KM20L2 colon
# [3] = system: UACC-257 melanoma
# [4] = system: CAKI-1 renal
# [5] = system: NCI-H522 lung
# [6] = system: HOP-62 NSCLC
# [7] = system: UO-31 renal
# [8] = system: UACC-62 melanoma
# [9] = system: TK-10 renal
# [10] = system: CCRF-CEM leukemia
# [11] = system: RXF 393 renal
# [12] = system: SK-OV-3 ovarian
# [13] = system: M19-MEL melanoma
# [14] = system: XF 498 CNS
# [15] = system: NCI-H23 lung
# [16] = system: HCT-116 colon
# [17] = system: OVCAR-5 ovarian
# [18] = system: LOX IMVI melanoma
# [19] = system: SNB-78 CNS
# [20] = system: KM12 colon
# [21] = system: A549 NSCLC
# [22] = system: U251 CNS
# [23] = system: HCT-15 colon
# [24] = system: COLO 205 colon
# [25] = system: DLD-1 colon
# [26] = system: DMS 273 small cell lung
# [27] = system: OVCAR-8 ovarian
# [28] = system: NCI-H460 lung
# [29] = system: LXFL 529 NSCLC
# [30] = system: SN12C renal
# [31] = system: OVCAR-4 ovarian
# [32] = system: M14 melanoma
# [33] = system: MALME-3M melanoma
# [34] = system: SK-MEL-28 melanoma
# [35] = system: SF-268 CNS
# [36] = system: ACHN renal
# [37] = system: HL-60(TB) leukemia
# [38] = system: SK-MEL-2 melanoma
# [39] = system: SNB-19 CNS
# [40] = system: HOP-92 NSCLC
# [41] = system: 786-0 renal
# [42] = system: IGROV1 ovarian
# [43] = system: SF-295 CNS
# [44] = system: NCI-H226 lung
# [45] = system: SNB-75 CNS
# [46] = system: RPMI-8226 leukemia
# [47] = system: HCC-2998 colon
# [48] = system: SW-620 colon
# [49] = system: SK-MEL-5 melanoma
# [50] = system: EKVX NSCLC
# [51] = system: OVCAR-3 ovarian
# [52] = system: A498 renal
# [53] = system: SF-539 CNS
# [54] = system: MOLT-4 leukemia
# [55] = system: HT29 colon
# [56] = system: K-562 leukemia
compound,measurement,setting,value
CCCCCCC[CH2][Sn]([Cl])([Cl])[CH2]CCCCCCC,GI50,[1],3.93 µM
same,TGI,[1],13.9 µM
same,GI50,[2],11.1 µM
same,TGI,[2],23.2 µM
same,GI50,[3],4.38 µM
same,TGI,[3],15.9 µM
same,GI50,[4],11 µM
same,TGI,[4],23.2 µM
same,GI50,[5],2.3 µM
same,TGI,[5],4.95 µM
same,GI50,[6],14.5 µM
same,TGI,[6],27.5 µM
same,GI50,[7],10.6 µM
same,TGI,[7],22.4 µM
same,GI50,[8],2.05 µM
same,TGI,[8],4.97 µM
same,GI50,[9],16 µM
same,TGI,[9],29.4 µM
same,GI50,[10],3.27 µM
same,TGI,[10],10.9 µM
same,GI50,[11],2.7 µM
same,TGI,[11],9.01 µM
same,GI50,[12],16.6 µM
same,TGI,[12],30.2 µM
same,GI50,[13],9.31 µM
same,TGI,[13],21.3 µM
same,GI50,[14],4.9 µM
same,TGI,[14],16.5 µM
same,GI50,[15],6.84 µM
same,TGI,[15],18.8 µM
same,GI50,[16],3.66 µM
same,TGI,[16],15.3 µM
same,GI50,[17],13.3 µM
same,TGI,[17],26.2 µM
same,GI50,[18],3.56 µM
same,TGI,[18],11.5 µM
same,GI50,[19],6.25 µM
same,TGI,[19],21.4 µM
same,GI50,[20],5.98 µM
same,TGI,[20],18.8 µM
same,GI50,[21],17.5 µM
same,TGI,[21],34.3 µM
same,GI50,[22],2.21 µM
same,TGI,[22],6.09 µM
same,GI50,[23],5.69 µM
same,TGI,[23],18.7 µM
same,GI50,[24],6 µM
same,TGI,[24],17.3 µM
same,GI50,[25],5.37 µM
same,TGI,[25],17.6 µM
same,GI50,[26],4.9 µM
same,TGI,[26],16.8 µM
same,GI50,[27],4.46 µM
same,TGI,[27],16.6 µM
same,GI50,[28],13.2 µM
same,TGI,[28],26.8 µM
same,GI50,[29],3.05 µM
same,TGI,[29],10.8 µM
same,GI50,[30],7.41 µM
same,TGI,[30],19.9 µM
same,GI50,[31],10.5 µM
same,TGI,[31],22.4 µM
same,GI50,[32],6.94 µM
same,TGI,[32],19.5 µM
same,GI50,[33],5.2 µM
same,TGI,[33],18.1 µM
same,GI50,[34],3.82 µM
same,TGI,[34],12.9 µM
same,GI50,[35],4.11 µM
same,TGI,[35],15.4 µM
same,GI50,[36],7.17 µM
same,TGI,[36],19.9 µM
same,GI50,[37],3.29 µM
same,TGI,[37],11.2 µM
same,GI50,[38],2.45 µM
same,TGI,[38],7.47 µM
same,GI50,[39],7.15 µM
same,TGI,[39],20 µM
same,GI50,[40],5.27 µM
same,TGI,[40],18.4 µM
same,GI50,[41],4.58 µM
same,TGI,[41],17.1 µM
same,GI50,[42],7.61 µM
same,TGI,[42],20.3 µM
same,GI50,[43],12.5 µM
same,TGI,[43],25 µM
same,GI50,[44],10.1 µM
same,TGI,[44],22.4 µM
same,GI50,[45],3.67 µM
same,TGI,[45],18.1 µM
same,GI50,[46],2.24 µM
same,TGI,[46],12.6 µM
same,GI50,[47],4.23 µM
same,TGI,[47],17 µM
same,GI50,[48],6.66 µM
same,TGI,[48],19.3 µM
same,GI50,[49],6.88 µM
same,TGI,[49],19.4 µM
same,GI50,[50],10.4 µM
same,TGI,[50],22.2 µM
same,GI50,[51],4.91 µM
same,TGI,[51],17 µM
same,GI50,[52],6.51 µM
same,TGI,[52],18.8 µM
same,GI50,[53],4.36 µM
same,TGI,[53],16.6 µM
same,GI50,[54],2.96 µM
same,TGI,[54],10.5 µM
same,GI50,[55],6.83 µM
same,TGI,[55],20 µM
same,GI50,[56],3.66 µM
same,TGI,[56],19.7 µM
